ChEMBL document CHEMBL1142082, “Oral versus intravenous flucytosine in patients with human immunodeficiency virus-associated cryptococcal meningitis” (Antimicrob Agents Chemother, 2007)

Assays:
Homo sapiens [1] = assay: Effect on creatinine clearance in orally dosed HIV associated cryptococcal meningitis patient relative to control; format: functional
Homo sapiens [2] = assay: Effect on creatinine clearance in intravenously dosed HIV associated cryptococcal meningitis patient relative to control; format: functional
Homo sapiens [3] = assay: Effect on alanine transferase level in orally dosed HIV associated cryptococcal meningitis patient relative to control; format: functional
Homo sapiens [4] = assay: Effect on hemoglobin level in intravenously dosed HIV associated cryptococcal meningitis patient after 2 weeks relative to baseline; format: functional
Homo sapiens [5] = assay: Effect on platelet count in orally dosed HIV associated cryptococcal meningitis patient after 2 weeks relative to baseline; format: functional
Homo sapiens [6] = assay: Effect on platelet count in intravenously dosed HIV associated cryptococcal meningitis patient after 2 weeks relative to baseline; format: functional
[7] = Oral clearance in HIV associated cryptococcal meningitis patient; format: ADME, organism-based; details: human, in vivo
Homo sapiens [8] = assay: Effect on neutrophils level in orally dosed HIV associated cryptococcal meningitis patient relative to control; format: functional
Homo sapiens [9] = assay: Effect on alanine transferase level in intravenously dosed HIV associated cryptococcal meningitis patient relative to control; format: functional
[10] = AUC in orally dosed HIV associated cryptococcal meningitis patient at 24 hrs; format: ADME, organism-based; parameters: time < 24 hr, route oral; details: human, plasma, po
Homo sapiens [11] = assay: Effect on neutrophils level in intravenously dosed HIV associated cryptococcal meningitis patient after 2 weeks relative to baseline; format: functional
Homo sapiens [12] = assay: Effect on alanine transferase level in intravenously dosed HIV associated cryptococcal meningitis patient after 2 weeks relative to baseline; format: functional
Homo sapiens [13] = assay: Effect on alanine transferase level in orally dosed HIV associated cryptococcal meningitis patient after 2 weeks relative to baseline; format: functional
Homo sapiens [14] = assay: Volume of distribution in orally dosed HIV associated cryptococcal meningitis patient normalized to weight; format: ADME, organism-based; details: in vivo, po
Homo sapiens [15] = assay: Effect on hemoglobin level in orally dosed HIV associated cryptococcal meningitis patient relative to control; format: functional
[16] = Volume of distribution in intravenously dosed HIV associated cryptococcal meningitis patient normalized to weight; format: ADME, organism-based; details: human, in vivo, iv; read-out: Vdss
Homo sapiens [17] = assay: Effect on hemoglobin level in intravenously dosed HIV associated cryptococcal meningitis patient relative to control; format: functional
Homo sapiens [18] = assay: Effect on aspartate aminotransferase level in intravenously dosed HIV associated cryptococcal meningitis patient relative to control; format: functional
Homo sapiens [19] = assay: Effect on neutrophils level in orally dosed HIV associated cryptococcal meningitis patient after 2 weeks relative to baseline; format: functional
[20] = AUC in intravenously dosed HIV associated cryptococcal meningitis patient at 24 hrs; format: ADME, organism-based; parameters: time < 24 hr, route intravenous; details: human, plasma, iv
Homo sapiens [21] = assay: Effect on creatinine clearance in orally dosed HIV associated cryptococcal meningitis patient after 2 weeks relative to baseline; format: functional
[22] = Fungicidal activity in HIV associated Cryptococcal meningitis patient; format: functional, Cryptococcus
Homo sapiens [23] = assay: Effect on hemoglobin level in orally dosed HIV associated cryptococcal meningitis patient after 2 weeks relative to baseline; format: functional
[24] = Clearance in intravenously dosed HIV associated cryptococcal meningitis patient; format: ADME, organism-based; details: human, in vivo, iv
[25] = Fungicidal activity in orally dosed HIV associated cryptococcal meningitis patient; format: functional, Cryptococcus
Homo sapiens [26] = assay: Effect on platelet count in intravenously dosed HIV associated cryptococcal meningitis patient relative to control; format: functional
Homo sapiens [27] = assay: Effect on platelet count in orally dosed HIV associated cryptococcal meningitis patient relative to control; format: functional
Homo sapiens [28] = assay: Effect on aspartate aminotransferase level in orally dosed HIV associated cryptococcal meningitis patient after 2 weeks relative to baseline; format: functional
Homo sapiens [29] = assay: Effect on creatinine clearance in intravenously dosed HIV associated cryptococcal meningitis patient after 2 weeks relative to baseline; format: functional
Homo sapiens [30] = assay: Effect on aspartate aminotransferase level in orally dosed HIV associated cryptococcal meningitis patient relative to control; format: functional
Homo sapiens [31] = assay: Effect on aspartate aminotransferase level in intravenously dosed HIV associated cryptococcal meningitis patient after 2 weeks relative to baseline; format: functional
[32] = Fungicidal activity in intravenously dosed HIV associated cryptococcal meningitis patient; format: functional, Cryptococcus
Homo sapiens [33] = assay: Effect on neutrophils level in intravenously dosed HIV associated cryptococcal meningitis patient relative to control; format: functional

Nc1nc(=O)[nH]cc1F [FLUCYTOSINE]
Creatinine_CL (Homo sapiens [1]): 75 mL/min
Creatinine_CL (Homo sapiens [2]): 74 mL/min
Activity (Homo sapiens [3]): 43 U/L
Activity (Homo sapiens [4]): 78%
Activity (Homo sapiens [5]): 112%
Activity (Homo sapiens [6]): 83%
CL/F [7]: 112 mL/min
Activity (Homo sapiens [8]): 4.5 10^9/L
Activity (Homo sapiens [9]): 38 U/L
AUC at 24 h [10]: 576 µg·h/mL
Activity (Homo sapiens [11]): 59%
Activity (Homo sapiens [12]): 86%
Activity (Homo sapiens [13]): 94%
Vdss (Homo sapiens [14]): 1.41 L/kg
Activity (Homo sapiens [15]): 10.6 g/dL
Vd [16]: 0.94 L/kg
Activity (Homo sapiens [17]): 11.2 g/dL
Activity (Homo sapiens [18]): 33 U/L
Activity (Homo sapiens [19]): 73%
AUC at 24 h [20]: 1290 µg·h/mL
Activity (Homo sapiens [21]): 83%
log10cfu/day [22]: -0.46
Activity (Homo sapiens [23]): 70%
clearance [24]: 63.3 mL/min
log10cfu/day [25]: -0.48
Activity (Homo sapiens [26]): 249 10^9/L
Activity (Homo sapiens [27]): 263 10^9/L
Activity (Homo sapiens [28]): 69%
Activity (Homo sapiens [29]): 76%
Activity (Homo sapiens [30]): 40 U/L
Activity (Homo sapiens [31]): 100%
log10cfu/day [32]: -0.43
Activity (Homo sapiens [33]): 5.6 10^9/L
